According to patent US8883801B2, “Substituted pyrazolo[1,5-a]pyrimidines as mTOR inhibitors” (Merck Sharp & Dohme Corp., priority 2010, dated 2014):

Assays:
[1] = molecular target: human mTOR enzyme (Homo sapiens, UniProt P42345); assay: HTRF mTOR enzyme (kinase) assay; type: biochemical; conditions: rated class; 5 μM ATP, 0.2 μM GST-S6K; read-out: hMTOR IC50
[2] = tested on: mTORC2 activity: phosphorylated AKT Ser473 (pAKT S473) in PC3 cells; assay: mTOR target engagement assay, immunofluorescent cell-based, mTORC2 readout; conditions: Homo sapiens, PC-3, 1.5 h, rated class, 90 min treatment
Procedure, shortened: (§1)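 Read-out is immunofluorescence intensity, normalized to DMSO-only wells and fitted to a sigmoidal Hill equation for IC50. The mTORC1 arm probes phospho-4E-BP1 Thr37/46 and the mTORC2 arm phospho-AKT Ser473.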

[3] = tested on: mTORC1 activity: phosphorylated 4E-BP1 Thr37/46 (p4E-BP1 Thr37/46) in PC3 cells; assay: mTOR target engagement assay, immunofluorescent cell-based, mTORC1 readout; conditions: Homo sapiens, PC-3, 1.5 h, rated class, 90 min treatment, read-out: P4EBP1 IC50
Procedure, shortened: as §1

Chain of human mTOR enzyme (P42345 1360-2549 limits assumed): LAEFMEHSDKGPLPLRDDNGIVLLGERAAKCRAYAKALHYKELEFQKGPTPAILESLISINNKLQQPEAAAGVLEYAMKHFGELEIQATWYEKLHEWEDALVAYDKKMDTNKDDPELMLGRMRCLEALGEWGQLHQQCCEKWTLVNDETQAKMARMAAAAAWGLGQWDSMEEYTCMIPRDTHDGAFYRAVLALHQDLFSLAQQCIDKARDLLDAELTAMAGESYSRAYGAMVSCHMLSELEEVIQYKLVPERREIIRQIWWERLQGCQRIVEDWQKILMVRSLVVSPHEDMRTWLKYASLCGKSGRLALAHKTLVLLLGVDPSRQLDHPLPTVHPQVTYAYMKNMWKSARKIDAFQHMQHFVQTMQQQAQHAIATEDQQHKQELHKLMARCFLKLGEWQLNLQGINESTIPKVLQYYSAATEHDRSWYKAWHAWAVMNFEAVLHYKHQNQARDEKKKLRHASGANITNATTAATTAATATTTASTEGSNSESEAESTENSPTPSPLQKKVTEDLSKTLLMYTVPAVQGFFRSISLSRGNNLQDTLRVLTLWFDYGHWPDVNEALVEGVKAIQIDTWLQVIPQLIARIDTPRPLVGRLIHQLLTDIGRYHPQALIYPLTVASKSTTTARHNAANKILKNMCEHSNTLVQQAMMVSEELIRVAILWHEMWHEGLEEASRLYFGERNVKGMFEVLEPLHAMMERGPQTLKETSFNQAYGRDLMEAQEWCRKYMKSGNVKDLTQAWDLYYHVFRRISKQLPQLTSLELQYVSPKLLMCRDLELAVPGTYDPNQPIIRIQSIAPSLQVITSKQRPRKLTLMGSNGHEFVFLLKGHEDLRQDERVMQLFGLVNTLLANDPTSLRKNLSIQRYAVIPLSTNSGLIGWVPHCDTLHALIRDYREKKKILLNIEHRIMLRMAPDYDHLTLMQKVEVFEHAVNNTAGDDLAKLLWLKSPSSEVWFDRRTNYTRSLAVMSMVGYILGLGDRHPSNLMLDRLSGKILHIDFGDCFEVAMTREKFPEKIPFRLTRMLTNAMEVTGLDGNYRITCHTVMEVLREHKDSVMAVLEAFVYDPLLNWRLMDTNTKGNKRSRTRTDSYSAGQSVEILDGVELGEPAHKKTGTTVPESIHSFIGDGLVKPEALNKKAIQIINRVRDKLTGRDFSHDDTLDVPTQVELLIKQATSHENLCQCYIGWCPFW

SMILES | IC50 [1] [nM] | IC50 [2] [nM] | IC50 [3] [nM]
COCCO[C@]1(C(=O)NOC)CC[C@@H](c2nc3c(-c4ccc(-c5ccccc5)nc4)cnn3c(N)c2S(C)(=O)=O)CC1 [Compound 105, (1R,4R)-4-(7-amino-6-(methylsulfonyl)-3-(6-phenylpyridin-3-yl)pyrazolo[1,5-a]pyrimidin-5-yl)-N-methoxy-1-(2-methoxyethoxy)-cyclohexane-carboxamide] | 1 to 100 | 1 to 100 | 100 to 1000
COCCO[C@]1(C(=O)NS(C)(=O)=O)CC[C@@H](c2nc3c(-c4cnn(-c5ccccc5)c4)cnn3c(N)c2C(C)=O)CC1 [Compound 70, (1R,4R)-4-(6-acetyl-7-amino-3-(1-phenyl-1H-pyrazol-4-yl)pyrazolo[1,5-a]pyrimidin-5-yl)-1-(2-methoxyethoxy)-N-(methylsulfonyl)cyclohexanecarboxamide] | 1 to 100 | 100 to 1000 | 100 to 1000
CC(=O)c1c(C2CCC(CO)(C(=O)O)CC2)nc2c(-c3ccc(-c4ccccc4)nc3)cnn2c1N (stereo not drawn) [Compound 133, 4-(6-acetyl-7-amino-3-(6-phenylpyridin-3-yl)pyrazolo[1,5-a]pyrimidin-5-yl)-1-(hydroxymethyl)cyclohexanecarboxylic acid] | 1 to 100 | 100 to 1000 | 100 to 1000
COCCO[C@]1(C(N)=O)CC[C@@H](c2nc3c(-c4cnn(-c5ccccc5)c4)cnn3c(N)c2S(C)(=O)=O)CC1 [Compound 110, (1R,4R)-4-(7-amino-6-(methylsulfonyl)-3-(1-phenyl-1H-pyrazol-4-yl)pyrazolo[1,5-a]pyrimidin-5-yl)-1-(2-methoxyethoxy)cyclohexanecarboxamide] | 1 to 100 | 1 to 100 | 1 to 100
CO[C@]1(C(=O)O)CC[C@H](c2nc3c(-c4ccc(-c5ccccc5)nc4)cnn3c(N)c2Br)CC1 [Compound 28, (1S,4S)-4-(7-amino-6-bromo-3-(6-phenylpyridin-3-yl)pyrazolo[1,5-a]pyrimidin-5-yl)-1-methoxycyclohexanecarboxylic acid] | 1 to 100 | 1 to 100 | 100 to 1000
CO[C@]1(C(=O)O)CC[C@@H](c2nc3c(-c4cnn(-c5ccccc5)c4)cnn3c(N)c2Br)CC1 [Compound 30, (1R,4R)-4-(7-amino-6-bromo-3-(1-phenyl-1H-pyrazol-4-yl)pyrazolo[1,5-a]pyrimidin-5-yl)-1-methoxycyclohexane-carboxylic acid] | 1 to 100 | 100 to 1000 | 100 to 1000

Continued, values first:

IC50 [1] [nM] | IC50 [2] [nM] | IC50 [3] [nM] | SMILES
1 to 100 | 1 to 100 | 100 to 1000 | COCCO[C@]1(C(=O)O)CC[C@@H](c2nc3c(-c4cnn(-c5ccccc5)c4)cnn3c(N)c2S(C)(=O)=O)CC1 [Compound 40, (1R,4R)-4-(7-amino-6-(methylsulfonyl)-3-(1-phenyl-1H-pyrazol-4-yl)pyrazolo[1,5-a]pyrimidin-5-yl)-1-(2-methoxyethoxy)cyclohexanecarboxylic acid]
1 to 100 | 1 to 100 | 100 to 1000 | CS(=O)(=O)c1c(C2CCC(O)(CO)CC2)nc2c(-c3cnn(-c4ccccc4)c3)cnn2c1N (stereo not drawn) [Compound 166, 4-(7-amino-6-(methylsulfonyl)-3-(1-phenyl-1H-pyrazol-4-yl)pyrazolo[1,5-a]pyrimidin-5-yl)-1-(hydroxymethyl)cyclohexanol]
1 to 100 | 1 to 100 | 1 to 100 | COCCO[C@]1(C(=O)NO)CC[C@@H](c2nc3c(-c4ccc(-c5ccccc5)nc4)cnn3c(N)c2S(C)(=O)=O)CC1 [Compound 104, (1R,4R)-4-(7-amino-6-(methylsulfonyl)-3-(6-phenylpyridin-3-yl)pyrazolo[1,5-a]pyrimidin-5-yl)-N-hydroxy-1-(2-methoxyethoxy)-cyclohexane-carboxamide]
